Conditions in all cases: NADPH co-substrate
The target in series [1] is T1, PcAad1p (Phanerodontia chrysosporium, UniProt Q01752).
T1 construct: full length, plasmid pGS-21a-PcAad1, N-terminal His6-GST and C-terminal His6 tags kept, E. coli BL21 Star; coding primer starts ATGAACATCTGGGCACCCG (MNIWAP)
T1 sequence (Q01752 1-385): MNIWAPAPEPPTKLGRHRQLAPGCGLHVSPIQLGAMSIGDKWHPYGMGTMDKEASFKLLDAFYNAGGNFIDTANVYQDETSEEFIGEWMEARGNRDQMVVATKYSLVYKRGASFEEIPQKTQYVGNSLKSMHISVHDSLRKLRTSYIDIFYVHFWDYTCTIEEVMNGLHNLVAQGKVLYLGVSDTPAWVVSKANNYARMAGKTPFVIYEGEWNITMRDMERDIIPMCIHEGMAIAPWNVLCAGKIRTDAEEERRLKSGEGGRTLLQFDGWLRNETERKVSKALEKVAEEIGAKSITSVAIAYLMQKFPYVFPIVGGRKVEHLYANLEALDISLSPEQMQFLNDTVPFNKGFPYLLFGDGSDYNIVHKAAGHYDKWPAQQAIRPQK
In words: spectrophotometric NADPH consumption at […] nm. It is filed as biochemical.

Series [2] has as its target T2, ScAad10^-35Cp (Saccharomyces cerevisiae, UniProt P47182).
T2 construct: gene AAD10; resurrected pseudogene: in-frame upstream 264 bp (88 residues) restored to annotated Aad10, stop TAG to CAG (Gln) at nt -35; annotated natural ORF (YJR155W) lacks these residues; N-terminal His6-GST and C-terminal His6 tags, E. coli BL21 Star
T2 sequence (P47182 1-288): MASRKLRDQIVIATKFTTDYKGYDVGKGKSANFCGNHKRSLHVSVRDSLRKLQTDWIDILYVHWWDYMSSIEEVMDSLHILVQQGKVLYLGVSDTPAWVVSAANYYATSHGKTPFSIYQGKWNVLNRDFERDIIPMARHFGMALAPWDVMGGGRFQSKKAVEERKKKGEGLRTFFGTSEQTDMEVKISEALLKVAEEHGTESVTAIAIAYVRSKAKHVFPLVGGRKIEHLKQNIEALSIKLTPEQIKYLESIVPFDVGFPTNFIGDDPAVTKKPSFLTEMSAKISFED
In words: spectrophotometric NADPH consumption at […] nm. It is filed as biochemical.

Substrate in series [3]: O=Cc1ccc(CO)o1
In words: purified protein. Type of series: biochemical, Phanerodontia chrysosporium.

One may read the Km as the substrate concentration at which the rate is half of its maximum.

As to `COc1ccc(C=O)cc1` [4-methoxybenzaldehyde], in series [1], the Km was found to be 87.3 ± 116 µM.
With `O=Cc1ccc(CO)o1` [hydroxymethylfurfural], the Km in series [2] came to 608 ± 246 µM.
For the molecule `O=CCc1ccccc1` [phenylacetaldehyde], the Km in series [1] is 527 ± 72.5 µM.

B1: PcAad1p (Phanerodontia chrysosporium) (protein)
chain: MNIWAPAPEPPTKLGRHRQLAPGCGLHVSPIQLGAMSIGDKWHPYGMGTMDKEASFKLLDAFYNAGGNFIDTANVYQDETSEEFIGEWMEARGNRDQMVVATKYSLVYKRGASFEEIPQKTQYVGNSLKSMHISVHDSLRKLRTSYIDIFYVHFWDYTCTIEEVMNGLHNLVAQGKVLYLGVSDTPAWVVSKANNYARMAGKTPFVIYEGEWNITMRDMERDIIPMCIHEGMAIAPWNVLCAGKIRTDAEEERRLKSGEGGRTLLQFDGWLRNETERKVSKALEKVAEEIGAKSITSVAIAYLMQKFPYVFPIVGGRKVEHLYANLEALDISLSPEQMQFLNDTVPFNKGFPYLLFGDGSDYNIVHKAAGHYDKWPAQQAIRPQK
notes: full length, plasmid pGS-21a-PcAad1, N-terminal His6-GST and C-terminal His6 tags kept, E. coli BL21 Star; coding primer starts … (MNIWAP)
On to B1, for which, in series [3], the Km was found to be 171 ± 36.7 µM and the Vmax is 2.40 ± 0.27 in micromoles per minute per mg.

These data come from publication PMC5734042, “Deciphering the Origin, Evolution, and Physiological Function of the Subtelomeric Aryl-Alcohol Dehydrogenase Gene Family in the Yeast Saccharomyces cerevisiae” (Applied and Environmental Microbiology, 2017).
